Experiment [1] deals with T1, furin protease (Homo sapiens, UniProt P09958).
T1 construct: rich furin protease in Golgi can effectively cleave a furin cleavage site; endogenous in cells; host or cells: 293T/anti-EGFR (HEK-293 derived) cells
The experiment can be described thus: FACS detection of anti-EGFR Ab-RAKR-mB7 on 293T/anti-EGFR cell membrane with furin inhibitor. In kind it is cell-based. As to conditions: 293T/anti-EGFR cells, furin inhibitor added, FITC anti-human IgG, FACS (FIG. 2B). From the text: (§1) (A) To detect the concentration of anti-EGFR antibody of 293T/anti-EGFR cell culture, Dec-RVKR-CMK was used as furin inhibitor. The Y axis represents concentration of the secreted anti-EGFR antibody, while the X axis represents cell groups. […] (B) To detect anti-EGFR Ab-RAKR-mB7 expression of 293T/anti-EGFR on cell membrane, FACS technology combined with FITC conjugated anti-human IgG antibody was used. The filled region represents 293T cells as control group; the solid line represents 293T/anti-EGFR cell without furin inhibitor; the dashed line represents 293T/anti-EGFR cell with furin inhibitor.
The gene was transfected into mammalian cells (human embryonic kidney cells, HEK-293). Under normal conditions, rich furin protease in Golgi can effectively cleave a furin cleavage site ([…]) between anti-EGFR antibody and mB7 to allow secretion of the anti-EGFR antibody into an extracellular matrix. When furin inhibitor (DEC-RVKR-CMK) was added, to inhibit the activity of the furin protease, the anti-EGFR Ab-RAKR-mB7 would not be cleaved by furin protease and would be stably anchored on the cell membrane surface. Then, FITC-conjugated anti-human antibody was used to label the anti-EGFR Ab-RAKR-mB7 on the cell membranes. By using FACS, the cells with high expression of anti-EGFR Ab-RAKR-mB7 on their cell membranes can be rapidly and high-throughput sorted. […]

The target of experiment [2] is T2, furin protease (Cricetulus griseus, UniProt A0A9J7CGZ7).
T2 construct: rich furin protease in Golgi can effectively cleave furin cleavage site; endogenous in cells; host or cells: LEC1/PCD-GB (CHO Lec1) cells
T2 sequence (A0A9J7CGZ7 27-794): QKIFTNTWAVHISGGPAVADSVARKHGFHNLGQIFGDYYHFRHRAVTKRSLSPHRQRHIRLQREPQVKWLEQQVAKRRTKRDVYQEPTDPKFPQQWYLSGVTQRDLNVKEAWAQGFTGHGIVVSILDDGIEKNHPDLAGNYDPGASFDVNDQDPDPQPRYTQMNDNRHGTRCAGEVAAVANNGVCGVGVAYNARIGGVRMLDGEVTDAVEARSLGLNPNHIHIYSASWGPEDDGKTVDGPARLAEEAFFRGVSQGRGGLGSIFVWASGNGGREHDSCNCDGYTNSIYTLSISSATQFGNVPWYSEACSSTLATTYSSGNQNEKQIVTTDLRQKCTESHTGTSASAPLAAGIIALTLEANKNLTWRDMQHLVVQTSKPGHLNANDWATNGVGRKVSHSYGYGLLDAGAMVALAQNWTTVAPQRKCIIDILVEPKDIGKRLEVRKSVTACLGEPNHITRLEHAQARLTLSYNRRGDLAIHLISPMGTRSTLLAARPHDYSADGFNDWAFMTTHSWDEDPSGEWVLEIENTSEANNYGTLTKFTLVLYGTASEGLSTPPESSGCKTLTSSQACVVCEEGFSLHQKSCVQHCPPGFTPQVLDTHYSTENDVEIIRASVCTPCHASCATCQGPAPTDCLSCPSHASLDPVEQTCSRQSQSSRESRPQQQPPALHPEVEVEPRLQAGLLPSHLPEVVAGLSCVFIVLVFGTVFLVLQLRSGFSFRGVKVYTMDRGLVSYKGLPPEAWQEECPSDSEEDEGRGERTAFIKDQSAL
The experiment can be described thus: FACS detection of PCD-GB-RAKR-mB7 on LEC1/PCD-GB cell membrane with furin inhibitor. Type of experiment: cell-based, Chinese Hamster. Conditions: LEC1/PCD-GB cells, furin inhibitor added, anti-myc antibody, FACS (FIG. 6B). From the text:
(A) To detect the expression of PCD-GB recombinant protein in LEC1 and LEC1/PCD-GB cells, Western blot technique accompanied with mouse anti-myc antibody and goat anti-mouse IgG-HRP was used. (B) Furin inhibitor (Dec-RVKR-CMK) was used to inhibit the furin activity of LEC1 and LEC1/PCD-GB cells. Then, to detect the expression of PCD-GB-RAKR-mB7 on cell membrane, FACS technology accompanied with mouse anti-myc antibody and goat anti-mouse IgG-HRP was used. The filled region represents LEC1 cells as control group; solid line represents LEC1/PCD-GB cells without furin inhibitor; dashed line represents LEC1/PCD-GB cells with furin inhibitor. (C) The X axis represents the expression of PCD-GB-RAKR-mB7 on cell membrane (mean relative fluorescence intensity). The Y axis represents the production of PCD-GB stored in lysosomes. Each dot represents a single individual LEC1/PCD-GB cell.
Example 2 exemplifies a perforin-granzyme fusion protein (PCD-GB) which is expressed in lysosome. […] The gene was transfected into mammalian cells (Chinese Hamster Ovary cells, LEC1). Under normal conditions, rich furin protease in Golgi can effectively cleave furin cleavage site ([…]) between PCD-GB and mB7 so that PCD-GB would be stored in lysosome. […]

The target in experiment [3] is T1, furin protease. The experiment can be described thus: Secretion of anti-EGFR antibody by 293T/anti-EGFR cells with furin inhibitor. In kind it is cell-based. As to conditions: furin inhibitor added vs absent (FIG. 2A).
Excerpt: as §1
Take a humanized anti-EGFR antibody, for example; we transfected an anti-EGFR Ab-RAKR-mB7 gene into a human embryonic kidney cell with a Lentivirus vector to construct a 293T/anti-EGFR cell line. In the absence of a furin inhibitor (Dec-RVKR-CMK), said 293T/anti-EGFR can continuously secrete anti-EGFR antibody into extracellular matrix (see FIG. 2A).

Data on one substance can be found in patent US9315815B2, “Method of high-throughput sorting of high expression cell and cells sorted therefrom” (Taipei Medical University, priority 2013, dated 2016).

T1 sequence (P09958 108-794): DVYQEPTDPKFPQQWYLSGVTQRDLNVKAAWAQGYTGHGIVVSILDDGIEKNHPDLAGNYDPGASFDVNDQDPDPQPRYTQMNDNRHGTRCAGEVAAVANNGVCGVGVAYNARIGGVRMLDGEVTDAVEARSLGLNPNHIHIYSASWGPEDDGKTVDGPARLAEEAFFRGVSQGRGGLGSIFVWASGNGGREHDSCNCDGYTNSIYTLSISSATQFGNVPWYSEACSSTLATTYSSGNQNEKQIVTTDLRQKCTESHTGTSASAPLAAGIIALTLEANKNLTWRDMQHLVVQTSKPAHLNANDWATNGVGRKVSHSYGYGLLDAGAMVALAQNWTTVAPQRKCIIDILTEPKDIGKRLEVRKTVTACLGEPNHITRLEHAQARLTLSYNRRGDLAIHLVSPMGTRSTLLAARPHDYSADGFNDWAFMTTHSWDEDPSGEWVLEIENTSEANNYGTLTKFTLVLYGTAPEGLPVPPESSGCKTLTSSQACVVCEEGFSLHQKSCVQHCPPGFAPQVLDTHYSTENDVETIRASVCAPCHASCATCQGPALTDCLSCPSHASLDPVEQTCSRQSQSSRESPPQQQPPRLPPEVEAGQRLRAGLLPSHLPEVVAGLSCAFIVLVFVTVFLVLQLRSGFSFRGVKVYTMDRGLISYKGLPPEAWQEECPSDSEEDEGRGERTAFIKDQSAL

For the substance Dec-RVKR-CMK, the “expression of anti-EGFR Ab-RAKR-mB7 on cell membrane” value at furin protease [1] is listed as “expression of anti-EGFR Ab-RAKR-mB7 was on the cell membrane”. Besides, the “PCD-GB-RAKR-mB7 detected on cell membrane” value on furin protease [2] was “few PCD-GB-RAKR-mB7 would be detected on the LEC1/PCD-GB cell membrane”. The “secretion of anti-EGFR antibody” value on furin protease [3] was “decreased secretion of anti-EGFR antibody”.
